Results taken from publication PMC11435093, “Synthesis and Evaluation of ^99mTc(CO)3 Complexes with Ciprofloxacin Dithiocarbamate for Infection Imaging” (Pharmaceutics, 2024).

Legend:
[1] = Lipophilicity: partition between n-octanol and PBS pH 7.4; format: physicochemical; details: n-octanol/PBS pH 7.4, M: 99mTc, three determinations
Procedure: The lipophilicity of HPLC purified technetium-99m complexes 1′–6′ was determined by measuring the partition coefficient (logD7.4) between n-octanol and phosphate-buffered saline (PBS, pH 7.4) based on established literature methods and is briefly described here. An aliquot of each technetium-99m complex was added to a mixture of equal volumes (2.0 mL each) of n-octanol and PBS (pH 7.4) in a 5 mL centrifuge tube. The mixture was vigorously vortexed for 2 min and then centrifuged at 5000 rpm for 5 min to ensure complete phase separation. After centrifugation, 0.1 mL aliquots from both the n-octanol and PBS phases were sampled and their radioactivity was measured using a gamma counter. The log P was calculated using the following equation: […]. The procedure was repeated three times for each complex to ensure reproducibility.

[2] = test system: Swiss Albino mice with induced infection (Staphylococcus aureus) and aseptic inflammation (turpentine); assay: Biodistribution in mice with induced infection and aseptic inflammation; format: in vivo; details: for Urine radioactivity: per sample; for blood clearance / blood radioactivity course: within 120 min
Procedure: The in vivo behavior of HPLC purified technetium-99m complexes 1′–6′ was evaluated through biodistribution studies in Swiss Albino mice (40 ± 5 g) with induced infection and aseptic inflammation. The experiment was conducted in accordance with the guidelines for the protection of animals used for scientific purposes. Mice were divided into groups and prepared for biodistribution studies by inducing infection and aseptic inflammation. Twenty-four hours prior to the injection of the technetium complexes, the left thigh muscle of each mouse was inoculated with 50 µL of a Staphylococcus aureus suspension (1 × 10^6 CFU/mL) to induce infection. Aseptic inflammation was induced in the right thigh muscle by injecting 50 µL of turpentine oil. The technetium-99m complexes were administered intravenously via the tail vein. Each mouse received an injection of 0.037 MBq of the respective technetium-99m complex. The biodistribution was studied at two different time points, 15 min and 120 min post-injection. At each time point, the mice were sacrificed under anesthesia. Blood samples were obtained by cardiac puncture. The organs of interest were collected after dissection, including the liver, heart, kidneys, stomach, intestines, spleen, muscle (normal, infected, and inflamed), lungs, pancreas, and urinary bladder. The organs were made free from adhering tissues and transferred into pre-weighed counting vials. The radioactivity of the collected samples was measured using a shielded well-type gamma counter. The results were expressed as a percentage of injected dose per gram of tissue (% ID/g). The radioactivity ratios in infected muscle to normal muscle and inflamed muscle to normal muscle were calculated to assess the specificity and selectivity of the technetium complexes for infection and inflammation.

[3] = Cysteine and histidine challenge (transchelation); format: physicochemical; details: 37 °C, 6 h
Procedure: (§1) The preparation of the ^99mTc-labeled complexes from synthesis to HPLC purification was completed within 1.5 h. Then, the stability of HPLC purified technetium-99m complexes 1′–6, with an RCP of 99% (based on HPLC), was assessed by monitoring their RCP over time and under various conditions using HPLC analysis based on established literature methods and is briefly described here.
Challenge experiments were performed by incubating the purified complexes with 10^−3 M solutions of cysteine and histidine at 37 °C. For each complex (1′–6′), 0.2 mL of the purified complex was mixed with 0.2 mL of the cysteine or histidine solution and incubated for 6 h. Aliquots were taken at the end of the incubation period and analyzed by HPLC.

[4] = Stability of HPLC-purified 99mTc complexes (HPLC); format: physicochemical; details: HPLC-purified complex, room temperature, periodic HPLC
Procedure: as §1
After purification by HPLC, the stability of the isolated technetium-99m complexes was evaluated over 6 h. The purified complexes were stored at room temperature, and aliquots were taken at 1, 3, and 6 h for HPLC analysis.

| Molecule | LogD7.4 [1] | Aseptic Infl. (turpentine inflamed muscle) radioactivity ([2]; 15 min post i.v. injection) [%ID/g] | Blood radioactivity ([2]; 15 min post i.v. injection) [%ID/g] | Heart radioactivity ([2]; 15 min post i.v. injection) [%ID/g] | Infection (S. aureus infected muscle) radioactivity ([2]; 15 min post i.v. injection) [%ID/g] | Intestines radioactivity ([2]; 15 min post i.v. injection) [%ID/g] | Kidneys radioactivity ([2]; 15 min post i.v. injection) [%ID/g] | Liver radioactivity ([2]; 15 min post i.v. injection) [%ID/g] | Lungs radioactivity ([2]; 15 min post i.v. injection) [%ID/g] | Muscle (normal) radioactivity ([2]; 15 min post i.v. injection) [%ID/g] | Pancreas radioactivity ([2]; 15 min post i.v. injection) [%ID/g] | Spleen radioactivity ([2]; 15 min post i.v. injection) [%ID/g] | Stomach radioactivity ([2]; 15 min post i.v. injection) [%ID/g] | Intestines radioactivity ([2]; 120 min post i.v. injection) [%ID/g] | Kidneys radioactivity ([2]; 120 min post i.v. injection) [%ID/g] | Liver radioactivity ([2]; 120 min post i.v. injection) [%ID/g] | Lungs radioactivity ([2]; 120 min post i.v. injection) [%ID/g] | Muscle (normal) radioactivity ([2]; 120 min post i.v. injection) [%ID/g] | Pancreas radioactivity ([2]; 120 min post i.v. injection) [%ID/g] | Spleen radioactivity ([2]; 120 min post i.v. injection) [%ID/g] | also measured |
| --- | --- | --- | --- | --- | --- | --- | --- | --- | --- | --- | --- | --- | --- | --- | --- | --- | --- | --- | --- | --- | --- |
| O=C(O)c1cn(C2CC2)c2cc(N3CCN(C(=S)[S][99Tc])CC3)c(F)cc2c1=O.[C-]#[O+].[C-]#[O+].[C-]#[O+].c1ccc(P(c2ccccc2)c2ccccc2)cc1 [complex 2′, fac-[^99mTc(CO)3(Cip-DTC)(PPh3)]] | 2.3 | 1.21 ± 0.07 | 4.51 ± 1.32 | 1.23 ± 0.36 | 2.93 ± 0.09 | 0.14 ± 0.03 | 1.30 ± 0.13 | 32.36 ± 3.58 | 6.66 ± 1.45 | 0.90 ± 0.09 | 0.47 ± 0.20 | 38.44 ± 3.92 | 0.55 ± 0.23 | 1.08 ± 0.07 | 6.50 ± 0.36 | 27.16 ± 4.02 | 10.20 ± 0.12 | 0.68 ± 0.05 | 1.04 ± 0.04 | 37.02 ± 4.43 | aseptic inflammation/normal muscle ratio ([2]; 15 min post i.v. injection): 1.34; infected/normal muscle ratio ([2]; 15 min post i.v. injection): 3.29; Urine radioactivity ([2]; 15 min post i.v. injection): 3.95 ± 1.30 %ID; Aseptic Infl. (turpentine inflamed muscle) radioactivity ([2]; 120 min post i.v. injection): 0.86 ± 0.10 %ID/g; Blood radioactivity ([2]; 120 min post i.v. injection): 5.19 ± 0.81 %ID/g; Heart radioactivity ([2]; 120 min post i.v. injection): 3.97 ± 0.25 %ID/g; Infection (S. aureus infected muscle) radioactivity ([2]; 120 min post i.v. injection): 3.12 ± 0.14 %ID/g; Stomach radioactivity ([2]; 120 min post i.v. injection): 1.23 ± 0.14 %ID/g; aseptic inflammation/normal muscle ratio ([2]; 120 min post i.v. injection): 1.28; infected/normal muscle ratio ([2]; 120 min post i.v. injection): 4.62; Urine radioactivity ([2]; 120 min post i.v. injection): 4.04 ± 1.23 %ID; blood clearance / blood radioactivity course [2]: relatively stable |
| COc1ccc(P(c2ccc(OC)cc2)c2ccc(OC)cc2)cc1.O=C(O)c1cn(C2CC2)c2cc(N3CCN(C(=S)[S][99Tc])CC3)c(F)cc2c1=O.[C-]#[O+].[C-]#[O+].[C-]#[O+] [complex 3′, fac-[^99mTc(CO)3(Cip-DTC)(TMPP)]] | 2.7 | 0.15 ± 0.07 | 2.54 ± 0.25 | 0.74 ± 0.32 | 0.27 ± 0.11 | 0.36 ± 0.25 | 1.40 ± 0.57 | 47.48 ± 1.30 | 9.58 ± 0.86 |  | 0.29 ± 0.13 | 33.88 ± 2.81 | 0.64 ± 0.61 | 3.52 ± 0.19 | 5.65 ± 0.78 | 27.58 ± 0.66 | 8.67 ± 0.72 | 0.34 ± 0.02 | 0.93 ± 0.20 | 23.10 ± 1.74 | Urine radioactivity ([2]; 15 min post i.v. injection): 0.00 ± 0.00 %ID; Aseptic Infl. (turpentine inflamed muscle) radioactivity ([2]; 120 min post i.v. injection): 0.52 ± 0.23 %ID/g; Blood radioactivity ([2]; 120 min post i.v. injection): 6.71 ± 0.50 %ID/g; Heart radioactivity ([2]; 120 min post i.v. injection): 3.48 ± 0.23 %ID/g; Infection (S. aureus infected muscle) radioactivity ([2]; 120 min post i.v. injection): 1.14 ± 0.05 %ID/g; Stomach radioactivity ([2]; 120 min post i.v. injection): 1.21 ± 0.32 %ID/g; aseptic inflammation/normal muscle ratio ([2]; 120 min post i.v. injection): 1.51; infected/normal muscle ratio ([2]; 120 min post i.v. injection): 3.32; Urine radioactivity ([2]; 120 min post i.v. injection): 0.01 ± 0.02 %ID; blood clearance / blood radioactivity course [2]: increasing |
| CP(c1ccccc1)c1ccccc1.O=C(O)c1cn(C2CC2)c2cc(N3CCN(C(=S)[S][99Tc])CC3)c(F)cc2c1=O.[C-]#[O+].[C-]#[O+].[C-]#[O+] [complex 4′, fac-[M(CO)3(Cip-DTC)(MePPh2)]] | 1.8 | 0.77 ± 0.12 | 3.20 ± 0.47 | 4.36 ± 0.46 | 0.88 ± 0.15 | 1.27 ± 0.16 | 5.92 ± 0.60 | 42.11 ± 1.70 | 11.15 ± 0.19 | 0.56 ± 0.07 | 1.38 ± 0.21 | 21.59 ± 0.98 | 1.11 ± 0.50 | 7.97 ± 0.12 | 11.10 ± 0.70 | 31.09 ± 0.72 | 9.41 ± 1.15 |  | 3.21 ± 0.28 | 8.14 ± 0.93 | Urine radioactivity ([2]; 15 min post i.v. injection): 0.01 ± 0.00 %ID; Aseptic Infl. (turpentine inflamed muscle) radioactivity ([2]; 120 min post i.v. injection): 1.88 ± 0.26 %ID/g; Blood radioactivity ([2]; 120 min post i.v. injection): 1.48 ± 0.11 %ID/g; Heart radioactivity ([2]; 120 min post i.v. injection): 8.85 ± 0.63 %ID/g; Infection (S. aureus infected muscle) radioactivity ([2]; 120 min post i.v. injection): 2.83 ± 0.30 %ID/g; Stomach radioactivity ([2]; 120 min post i.v. injection): 2.23 ± 0.37 %ID/g; Urine radioactivity ([2]; 120 min post i.v. injection): 0.04 ± 0.03 %ID |
| fac-[M(CO)3(Cip-DTC)(ADAP)] [complex 6′] | 1.6 | 1.10 ± 0.06 | 2.18 ± 0.06 | 4.27 ± 0.42 | 0.94 ± 0.09 | 3.22 ± 0.32 | 8.05 ± 0.22 | 20.95 ± 1.56 | 7.13 ± 0.35 | 1.01 ± 0.12 | 3.70 ± 0.26 | 6.40 ± 0.66 | 0.98 ± 0.29 | 10.24 ± 1.11 | 4.47 ± 0.52 | 22.98 ± 2.70 | 3.06 ± 0.10 | 0.69 ± 0.05 | 2.27 ± 0.37 | 2.55 ± 0.27 | Urine radioactivity ([2]; 15 min post i.v. injection): 0.37 ± 0.08 %ID; Aseptic Infl. (turpentine inflamed muscle) radioactivity ([2]; 120 min post i.v. injection): 0.66 ± 0.10 %ID/g; Blood radioactivity ([2]; 120 min post i.v. injection): 1.33 ± 0.10 %ID/g; Heart radioactivity ([2]; 120 min post i.v. injection): 1.94 ± 0.31 %ID/g; Infection (S. aureus infected muscle) radioactivity ([2]; 120 min post i.v. injection): 0.69 ± 0.09 %ID/g; Stomach radioactivity ([2]; 120 min post i.v. injection): 3.14 ± 0.69 %ID/g; Urine radioactivity ([2]; 120 min post i.v. injection): 1.49 ± 0.23 %ID |
| fac-[M(CO)3(Cip-DTC)(DMPP)] [complex 5′] | 2.0 |  |  |  |  |  |  | 35.51 ± 0.97 | 9.87 ± 0.89 | 0.40 ± 0.06 | 0.83 ± 0.18 | 18.04 ± 0.73 |  | 9.98 ± 1.22 | 5.69 ± 1.44 | 31.27 ± 5.71 | 5.37 ± 0.47 | 1.34 ± 0.09 | 3.68 ± 0.48 | 7.64 ± 1.22 |  |
| fac-[^99mTc(CO)3(Cip-DTC)(H2O)] [complex 1′] | 1.2 |  |  |  | 1.06 ± 0.20 | 0.71 ± 0.11 | 5.16 ± 0.32 | 22.05 ± 1.40 | 6.41 ± 1.14 | 0.18 ± 0.02 | 0.91 ± 0.04 | 9.79 ± 1.69 | 0.91 ± 0.20 |  | 5.76 ± 0.65 | 25.96 ± 2.23 | 4.33 ± 0.41 | 0.18 ± 0.01 |  | 5.24 ± 0.45 | stability in cysteine ([3]; 10^-3 M cysteine): 90%; stability in histidine ([3]; 10^-3 M histidine): 91%; stability post-purification (integrity, HPLC) [4]: 92%; blood clearance / blood radioactivity course [2]: slow blood clearance |
